Tests used:
[1] = system: hypercholesterolemic male rat; experiment: Inhibition of dietary induced hypercholesterolemia in male rats (serum lipids); assay type: in vivo; parameters: key to Cholesterol lowering / Triglyceride lowering: In = Inactive at dose tested; A = Activity> clofibrate; M = Activity≤ clofibrate; conditions: for Cholesterol lowering / Triglyceride lowering: rats, efficacy compared to clofibrate, dose not given; for % change in serum from control HDL: HDL cholesterol; for % change in serum from control HDL / % change in serum from control VLDL & LDL / % change in serum from control Cholesterol / % change in serum from control Triglyceride: male rats, oral; for % change in serum from control VLDL & LDL: VLDL & LDL cholesterol (difference between total and HDL cholesterol); for % change in serum from control Cholesterol / % change in serum from control Triglyceride: twice daily 3 days and once on day 4
Procedure: Hypercholesterolemia was produced in male rats after 3 days in a diet of 0.4% cholesterol and 0.2% sodium cholate. Each group contained 4 rats. Compounds tested were given orally twice daily for 3 days and once on day 4. Control animals received the vehicle, methyl cellulose. The cholesterol-containing diet and compound treatment were started at the same time. Animals were bled before dietary and compound treatment and 3 hr after the last dose of compound on day 4. All bleedings were after a 4 hr fast. Total serum cholesterol, triglyceride and high density lipoprotein (HDL) cholesterol determined by the procedure and test kit supplied by Dow Diagnostics (Trademark of the Dow Chemical Co. Laboratories, Indianapolis, IN). Very low and low density lipoprotein (VLDL & LDL) cholesterol were determined by the difference between total and HDL cholesterol.
By the method of Example 5 various compounds of formula (IA) were assessed for their ability to reduce cholesterol and triglyceride levels in rats. The compounds were compared in efficacy to clofibrate.

rats = experiment: Oral toxicity in rats; assay type: in vivo; conditions: oral administration to rats at upto 1 g/kg bodyweight

Cc1ccc(-c2ccccc2C(=O)O)cc1 [CH3, 2-(4-Methylphenyl)-benzoic acid]
Cholesterol lowering [1]: M
Triglyceride lowering [1]: M

O=C(O)c1ccccc1-c1ccc(Cl)cc1 [Cl, 2-(4-Chlorophenyl)-benzoic acid]
Cholesterol lowering [1]: M
Triglyceride lowering [1]: In

CCOC(=O)C(C)(C)Oc1ccc(Cl)cc1 [Clofibrate, reference compound]
% change in serum from control HDL ([1]; dose 100 mg/kg/day): −21%
% change in serum from control HDL ([1]; dose 200 mg/kg/day): −28%
% change in serum from control VLDL & LDL ([1]; dose 100 mg/kg/day): 0%
% change in serum from control VLDL & LDL ([1]; dose 200 mg/kg/day): −29%
% change in serum from control Cholesterol ([1]; dose 25 mg/kg/day): 0%
% change in serum from control Triglyceride ([1]; dose 25 mg/kg/day): 0%
% change in serum from control Cholesterol ([1]; dose 50 mg/kg/day): 0%
% change in serum from control Triglyceride ([1]; dose 50 mg/kg/day): −31%
% change in serum from control Cholesterol ([1]; dose 100 mg/kg/day): 0%
% change in serum from control Triglyceride ([1]; dose 100 mg/kg/day): −33%
% change in serum from control Cholesterol ([1]; dose 200 mg/kg/day): −28%
% change in serum from control Triglyceride ([1]; dose 200 mg/kg/day): −40%

CCc1ccc(-c2ccccc2C(=O)O)cc1 [Example C2H5, 2-(4-Ethylphenyl)-benzoic acid]
Cholesterol lowering [1]: A
Triglyceride lowering [1]: A

O=C(O)c1ccccc1-c1ccc(F)cc1 [F, 2-(4-Fluorophenyl)-benzoic acid]
Cholesterol lowering [1]: In
Triglyceride lowering [1]: M

CC(C)c1ccc(-c2ccccc2C(=O)O)cc1 [I C3H7, 2-(4-isoPropylphenyl)-benzoic acid]
Cholesterol lowering [1]: A
Triglyceride lowering [1]: A

O=C(O)c1ccccc1-c1ccc(C(F)(F)F)cc1 [IA(R=CF3), 2-(4-trifluoromethylphenyl)benzoic acid]
deaths (rats): no deaths were observed
% change in serum from control HDL ([1]; dose 25 mg/kg/day): −6%
% change in serum from control HDL ([1]; dose 50 mg/kg/day): +10%
% change in serum from control HDL ([1]; dose 150 mg/kg/day): −15%
% change in serum from control VLDL & LDL ([1]; dose 25 mg/kg/day): −46%
% change in serum from control VLDL & LDL ([1]; dose 50 mg/kg/day): −64%
% change in serum from control VLDL & LDL ([1]; dose 150 mg/kg/day): −52%
% change in serum from control Cholesterol ([1]; dose 25 mg/kg/day): −40%
% change in serum from control Triglyceride ([1]; dose 25 mg/kg/day): −43%
% change in serum from control Cholesterol ([1]; dose 50 mg/kg/day): −56%
% change in serum from control Triglyceride ([1]; dose 50 mg/kg/day): −53%
% change in serum from control Cholesterol ([1]; dose 100 mg/kg/day): −51%
% change in serum from control Triglyceride ([1]; dose 100 mg/kg/day): −57%
% change in serum from control Cholesterol ([1]; dose 150 mg/kg/day): −40%
% change in serum from control Triglyceride ([1]; dose 150 mg/kg/day): −60%
Cholesterol lowering [1]: A
Triglyceride lowering [1]: A

COc1ccc(-c2ccccc2C(=O)O)cc1 [OCH3, 2-(4-Methoxyphenyl)-benzoic acid]
Cholesterol lowering [1]: M
Triglyceride lowering [1]: A

CCCCc1ccc(-c2ccccc2C(=O)O)cc1 [n C4H9, 2-(4-n-butylphenyl)benzoic acid]
Cholesterol lowering [1]: A
Triglyceride lowering [1]: A

CC(C)(C)c1ccc(-c2ccccc2C(=O)O)cc1 [t C4H9, 2-(4-t-Butylphenyl)-benzoic acid]
Cholesterol lowering [1]: M
Triglyceride lowering [1]: A
